pIC50: −log10 of the molar value.
Assays:
[1] = biological target: Microtubule-associated protein tau (Homo sapiens, UniProt P10636); assay: Inhibition of tau phosphorylation (unknown origin)
[2] = biological target: T1, Epidermal growth factor receptor (Homo sapiens, UniProt P00533); assay: Inhibition of EGFR (unknown origin) at 0.5 uM relative to control
[3] = biological target: T1, Epidermal growth factor receptor; assay: Inhibition of EGFR (unknown origin)

Microtubule-associated protein tau, sequence (P10636 whole entry): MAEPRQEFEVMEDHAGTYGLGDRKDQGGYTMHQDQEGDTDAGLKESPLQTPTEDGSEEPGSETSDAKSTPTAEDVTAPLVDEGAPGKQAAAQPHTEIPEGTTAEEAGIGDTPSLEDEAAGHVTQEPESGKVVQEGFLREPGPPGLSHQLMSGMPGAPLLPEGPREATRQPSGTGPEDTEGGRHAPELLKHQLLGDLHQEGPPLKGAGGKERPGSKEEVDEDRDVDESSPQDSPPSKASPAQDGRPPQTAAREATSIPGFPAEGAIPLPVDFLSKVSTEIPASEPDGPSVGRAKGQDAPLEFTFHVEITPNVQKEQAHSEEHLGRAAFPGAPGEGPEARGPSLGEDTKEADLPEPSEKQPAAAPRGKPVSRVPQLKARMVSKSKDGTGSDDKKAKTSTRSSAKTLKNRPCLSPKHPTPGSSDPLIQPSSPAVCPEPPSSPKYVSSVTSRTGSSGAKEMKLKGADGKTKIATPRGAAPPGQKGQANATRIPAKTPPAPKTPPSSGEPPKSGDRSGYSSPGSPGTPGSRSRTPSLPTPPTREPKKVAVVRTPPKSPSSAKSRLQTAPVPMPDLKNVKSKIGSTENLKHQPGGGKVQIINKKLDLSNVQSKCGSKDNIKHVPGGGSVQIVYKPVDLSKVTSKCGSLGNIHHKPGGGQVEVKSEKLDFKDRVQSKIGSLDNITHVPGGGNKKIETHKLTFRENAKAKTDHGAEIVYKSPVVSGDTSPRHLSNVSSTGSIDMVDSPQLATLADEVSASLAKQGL
T1 sequence (P00533 whole entry): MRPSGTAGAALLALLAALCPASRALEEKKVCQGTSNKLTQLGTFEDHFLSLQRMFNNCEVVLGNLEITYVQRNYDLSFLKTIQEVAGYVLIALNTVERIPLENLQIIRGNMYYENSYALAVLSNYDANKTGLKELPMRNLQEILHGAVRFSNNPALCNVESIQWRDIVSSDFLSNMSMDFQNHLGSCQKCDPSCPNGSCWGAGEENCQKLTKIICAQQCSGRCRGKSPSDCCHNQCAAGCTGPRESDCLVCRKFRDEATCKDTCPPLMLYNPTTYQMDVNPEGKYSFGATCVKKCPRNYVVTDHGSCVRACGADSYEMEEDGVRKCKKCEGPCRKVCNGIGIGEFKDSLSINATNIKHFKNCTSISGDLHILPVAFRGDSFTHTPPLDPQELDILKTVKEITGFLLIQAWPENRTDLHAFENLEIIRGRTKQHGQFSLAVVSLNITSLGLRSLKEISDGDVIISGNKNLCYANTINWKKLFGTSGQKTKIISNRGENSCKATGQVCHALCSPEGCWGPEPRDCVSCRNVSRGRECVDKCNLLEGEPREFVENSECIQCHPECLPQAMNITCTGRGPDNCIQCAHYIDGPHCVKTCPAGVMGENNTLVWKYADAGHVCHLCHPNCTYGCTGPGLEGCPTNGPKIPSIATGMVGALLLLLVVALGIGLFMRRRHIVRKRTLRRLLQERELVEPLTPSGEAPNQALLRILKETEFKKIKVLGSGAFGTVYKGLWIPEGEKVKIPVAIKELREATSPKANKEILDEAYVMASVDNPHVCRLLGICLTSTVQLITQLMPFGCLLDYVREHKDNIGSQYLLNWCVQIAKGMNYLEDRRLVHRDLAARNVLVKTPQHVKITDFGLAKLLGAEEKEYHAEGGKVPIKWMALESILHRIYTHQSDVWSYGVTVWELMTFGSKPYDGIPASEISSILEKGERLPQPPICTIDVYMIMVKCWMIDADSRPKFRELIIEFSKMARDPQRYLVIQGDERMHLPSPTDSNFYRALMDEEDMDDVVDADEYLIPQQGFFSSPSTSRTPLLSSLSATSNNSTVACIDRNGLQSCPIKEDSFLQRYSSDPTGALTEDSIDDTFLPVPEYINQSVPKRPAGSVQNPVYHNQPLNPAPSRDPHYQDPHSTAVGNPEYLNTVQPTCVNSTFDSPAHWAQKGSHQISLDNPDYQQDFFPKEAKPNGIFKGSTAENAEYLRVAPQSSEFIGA

Row | pIC50 [1] | Compound | also measured
1 | 5.70 | CC[C@H](C)[C@H](NC(=O)[C@H](CCSC)NC(=O)[C@H](Cc1c[nH]c2ccccc12)NC(=O)[C@@H](NC(=O)[C@@H](N)CC(=O)O)C(C)C)C(=O)N[C@@H](CC(N)=O)C(=O)N[C@@H](CCCCN)C(=O)N[C@@H](CCCCN)C(=O)N[C@@H](CCCNC(=N)N)C(=O)N[C@@H](CCCCN)C(=O)NCCOCCOCCOCCOCCOCCOCCN[C@@H](CCCNC(=N)N)C(=O)N[C@H](C(=O)N1CCC[C@H]1C(=O)N1CCC[C@H]1C(=O)N[C@@H](CCCCN)C(=O)N[C@@H](CO)C(=O)N1CCC[C@H]1C(=O)N[C@@H](CCCNC(=N)N)C(=O)N[C@@H](CCCNC(=N)N)C(=O)N[C@@H](CCCNC(=N)N)C(=O)N[C@@H](CCCNC(=N)N)C(=O)N[C@@H](CCCNC(=N)N)C(=O)N[C@@H](CCCNC(=N)N)C(=O)N[C@@H](CCCNC(=N)N)C(=O)N[C@@H](CCCNC(=N)N)C(=O)O)[C@@H](C)O | –
2 | – | CC[C@H](C(=O)N1CCCC[C@@H]1C(=O)O[C@H](CCc1ccc(OC)c(OC)c1)c1cccc(OCC(=O)NCCOCCOCCN(C)C/C=C/C(=O)Nc2cc3c(Nc4ccc(F)c(Cl)c4)ncnc3cc2OC)c1)c1cc(OC)c(OC)c(OC)c1 | inhibition [2]: 90%
3 | – | CC[C@H](C(=O)N1CCCC[C@@H]1C(=O)O[C@H](CCc1ccc(OC)c(OC)c1)c1cccc(OCC(=O)NCCC(=O)N2CCN(CCCOc3cc4c(Nc5ccc(F)c(Cl)c5)ncnc4cc3OC)CC2)c1)c1cc(OC)c(OC)c(OC)c1 | pIC50 [3]: 7.89
4 | < 4.70 | H-YQQYQDATADEQGGSGSKKVAVVRTPPKSPRRRRRRRR-OH | –
